Data as given in US9688637B2, “3-amidobenzamides and uses thereof for increasing cellular levels of A3G and other A3 family members” (Northwestern University, priority 2014, dated 2017).

Experiments:
293T cells = test: Cellular cytotoxicity by counting cells after 48 hrs with compound vs DMSO; assay type: cell-based
Experimental: (§1) To screen compounds that can boost A3G levels, 293T cells (25,000 cells per well in 96-well plate) stably expressing A3G-Luc protein or A3G-Luc/Vif proteins were plated. After 24 hrs post plating culture medium was replaced with 100 μl of new medium containing either DMSO as a control or various compounds (10 μM concentration). After 48 hrs of incubation with compounds culture medium was removed from each well and replaced with 100 μl of Britelite Plus luciferase assay substrate (PerkinElmer). Following 5 min. of incubation at room temperature, 75 μl of each cell lysate was transferred to a 96-well OptiPlate 96 (PerkinElmer) and luminescence was measured in a VICTOR X2 Multilabel Reader (PerkinElmer). Relative activity of compounds for their boosting capability A3G-Luc activity was calculated by plotting DMSO-treated A3G-Luc or A3G-Luc/Vif cells as 100%. Cellular cytotoxicity was measured by counting number of cells after 48 hrs of incubation with compounds compared to DMSO treated cells.

A3G = A3G (Homo sapiens, UniProt Q9HC16); settings: described by others (ref. 39); cited from earlier work
A3G-Luc/Vif [1] = test: A3G-Luc/Vif luciferase screen in 293T cells stably co-expressing A3G-Luc and HIV-1 Vif; assay type: cell-based, human; settings: 30 μM, 48 hrs, DMSO = 100%
A3G-Luc = A3G-Luc luciferase screen in 293T cells stably expressing A3G-Luc; assay type: cell-based, human; settings: 48 hrs, DMSO = 100%
From the text: This background led to construction of cell lines to use in a search for compounds that might boost levels of A3s in the HIV target cells of the majority of HIV-infected persons who are non-controllers. The goal is to test a strategy of using such a booster in acute/early infection to prevent the hypothesized decrease of A3G and related A3s in an effort to increase “control” in persons lacking HLA B57/27-associated control. […] 293T and TZM-bl cells were maintained in DMEM (containing 4.5 g/liter glucose, L-glutamine, and sodium pyruvate) medium plus 10% fetal bovine serum, 50 IU/ml penicillin, and 50 μg/ml streptomycin at 37° C. and 5% CO2 throughout the experiments. […]. After collecting viral supernatant, 293T cells were infected with viral particles harboring the A3G-Luc expressing vector and selected with puromycin (0.75 μg/ml) for three days. Ten single cell clones of stable cells were isolated and tested for expression of A3G-Luc protein by both immunoblotting using antibody against A3G and measuring luciferase activity. Expressions in cell lines used for subsequent experiments are depicted in FIG. 2, upper panel. The A3G-Luc fusion protein was sensitive to Vif-mediated degradation (FIG. 3). Similar cells lines stably expressing A3F were constructed with the same methods (not shown).
as §1, with “After 24 hrs post plating culture medium was replaced with 100 μl of new medium containing either DMSO as a control or various compounds (10 μM concentration).” left out

A3G-Luc/Vif [2] = test: A3G-Luc/Vif luciferase screen in 293T cells stably co-expressing A3G-Luc and HIV-1 Vif; assay type: cell-based, human; settings: 10 μM, 48 hrs, DMSO = 100%
Experimental: FIG. 6. 293T cell clone #6 stably co-expressing A3G-Luciferase fusion protein together with HIV-1 Vif was used. Small molecule compounds were tested for their effects on stability of A3G and inhibition of Vif activity against A3G by measuring luciferase activity, relative to treatment with control DMSO only. The relative % luciferase activity was higher after treatment with NU compounds than DMSO.
[…]. After sorting, expression of both A3G-Luc and Vif was confirmed by immunoblotting using antibody against both A3G and Vif.
as §1

BC-1 = BC-1 primary effusion lymphoma cell proliferation; assay type: cell-based; settings: primary effusion lymphoma (PEL) cell line (FIG. 10)
From the text: FIG. 10. A primary effusion lymphoma (PEL) cell line (BC-1, infected with both Kaposi's sarcoma herpesvirus and Epstein Barr Virus) is also killed by the listed compounds.

A3G, sequence (Q9HC16 whole entry): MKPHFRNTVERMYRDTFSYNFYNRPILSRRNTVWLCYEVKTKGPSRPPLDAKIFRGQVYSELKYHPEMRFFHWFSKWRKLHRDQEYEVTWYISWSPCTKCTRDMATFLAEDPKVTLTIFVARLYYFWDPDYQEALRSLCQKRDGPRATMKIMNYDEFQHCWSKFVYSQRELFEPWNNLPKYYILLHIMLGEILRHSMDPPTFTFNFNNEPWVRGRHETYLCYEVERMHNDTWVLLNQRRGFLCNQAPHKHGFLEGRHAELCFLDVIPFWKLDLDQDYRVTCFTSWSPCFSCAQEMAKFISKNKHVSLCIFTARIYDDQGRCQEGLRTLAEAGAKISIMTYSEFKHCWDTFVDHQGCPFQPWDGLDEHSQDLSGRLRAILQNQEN

Row | Compound | Vif-A3G-Luc Activity (% of RLUs compared to DMSO treated control) (A3G-Luc/Vif [1]) [%] | A3G-Luc Activity (% of Relative Light Units compared to DMSO treated control) (A3G-Luc; 30 μM) [%] | further results
1 | COc1ccc(C(=O)Nc2cc(OC)c(OC)c(OC)c2)cc1NC(=O)C(C)Br (stereo not shown) [IMB-26, reference compound] |  |  | toxicity to 293T cells (293T cells): toxic; binding to A3G and degradation of A3G by Vif (A3G): directly bind to A3G and prevent its degradation by Vif
2 | COc1ccc(NC(=O)c2ccc(OC)c(NC(=O)C(C)C)c2)cc1 [NU-54] | 116 | 137 | 
3 | COc1ccc(C(=O)Nc2cc(OC)c(OC)c(OC)c2)cc1NC(=O)C(C)C [NU-56] | 93 | 114 | 
4 | CCC(=O)Nc1cc(C(=O)Nc2cc(OC)c(OC)c(OC)c2)ccc1OC [NU-57] | 74 | 87 | 
5 | COc1ccc(C(=O)Nc2cc(OC)c(OC)c(OC)c2)cc1NC(C)=O [NU-58] | 93 | 123 | 
6 | COc1ccc(C(=O)Nc2ccc(Cl)c(Cl)c2)cc1N(C)C(=O)C(C)C [NU-611] |  |  | Vif-A3G-Luc Activity (% of RLUs compared to DMSO treated control) (A3G-Luc/Vif [2]): 75%; BC-1 cell proliferation (BC-1): inhibit BC-1 cell proliferation; A3G-Luc Activity (% of Relative Light Units compared to DMSO treated control) (A3G-Luc; 10 μM): 67%
